Laboratory results as given in patent publication US20060183901A1, “Crystalline form of an indazole-carboxamide compound” (THERAVANCE, INC., priority 2005, published 2006).

Assays:
[1] = target: human 5-HT3A receptor (Homo sapiens, UniProt P46098)
Method: Assay 2: Radioligand Binding Assay on 5-HT3A Human Receptors: Determination of Receptor Subtype Selectivity
Membrane Preparation 5-HT3A
Cells were grown in T-225 flasks or cell factories in 50% Dulbecco's Modified Eagles Medium (DMEM) (GIBCO-Invitrogen Corp., Carlsbad, Calif.: Cat #11965) and 50% Ham's F12 (GIBCO-Invitrogen Corp.: Cat #11765) supplemented with 10% heat inactivated fetal bovine serum (FBS) (Hyclone, Logan, Utah: Cat #SH30070.03) and (50 units) penicillin-(50 μg) streptomycin/ml (GIBCO-Invitrogen Corp.: Cat #15140) in a 5% CO2, humidified incubator at 37° C.
Cells were grown to roughly 70-80% confluency (<35 subculture passages). All steps of the membrane preparation were performed on ice. […]
Radioligand binding assays were performed in 96-well polypropylene assay plates in a total assay volume of 200 μL containing 1.5-2 μg membrane protein in 50 mM HEPES pH 7.4, containing 0.025% BSA assay buffer. […] Non-specific binding was determined in the presence of 10 μM unlabeled MDL72222. […] Filter plates were washed three times with filtration buffer (ice-cold 50 mM HEPES, pH7.4) to remove unbound radioactivity. Plates were dried, 35 μL Microscint-20 liquid scintillation fluid (Packard BioScience Co., Meriden, Conn.) was added to each well and plates were counted in a Packard Topcount liquid scintillation counter (Packard BioScience Co., Meriden, Conn.). […]

[2] = target: T1, human 5-HT4(c) receptor (Homo sapiens, UniProt Q13639); assay: Radioligand binding assay on 5-HT4(c) human receptors; parameters: expressed in transfected cells
Method: Assay 1: Radioligand Binding Assay on 5-HT4(c) Human Receptors a. Membrane Preparation 5-HT4(c)
Cells were grown under continuous selection pressure by the addition of 800 μg/mL geneticin (GIBCO-Invitrogen Corp.: Cat #10131) to the medium.
Cells were grown to roughly 60-80% confluency (<35 subculture passages). At 20-22 hours prior to harvesting, cells were washed twice and fed with serum-free DMEM. […] The cell monolayer was lifted by gentle mechanical agitation and trituration with a 25 mL pipette.
For the membrane preparation, cell pellets were resuspended in ice-cold 50 mM 4-(2-hydroxyethyl)-1-piperazineethanesulphonic acid (HEPES), pH 7.4 (membrane preparation buffer) (40 mL/total cell yield from 30-40 T225 flasks) and homogenized using a polytron disrupter (setting 19, 2×10 s) on ice. The resultant homogenates were centrifuged at 1200 g for 5 min at 4° C. […] Protein concentration of the membrane suspension was determined by the method of Bradford (Bradford, 1976). […]
Non-specific binding was determined in the presence of 1 μM unlabeled GR113808.
Binding data were analyzed by nonlinear regression analysis with the GraphPad Prism Software package (GraphPad Software, Inc., San Diego, Calif.) using the 3-parameter model for one-site competition. […] Results are expressed as the negative decadic logarithm of the Ki values, pKi.

[3] = target: T1, human 5-HT4(c) receptor; assay: Whole-cell cAMP accumulation flashplate assay with HEK-293 cells expressing human 5-HT4(c) receptors; assay type: cell-based; parameters: expressed in transfected cells; host or cells: HEK-293
Method: The plates were sealed and incubated at 4° C. overnight.
Potency data are reported as pEC50 values, the negative decadic logarithm of the EC50 value, where EC50 is the effective concentration for a 50% maximal response.

[4] = test system: Caco-2 cell monolayer; assay: Caco-2 permeation assay; assay type: in vitro ADME, human; conditions: 100 μM, 37° C., 60 min
Method: Assay 5: In Vitro Model of Oral Bioavailability: Caco-2 Permeation Assay
The Caco-2 permeation assay was performed to model the ability of test compounds to pass through the intestine and get into the blood stream after oral administration. The rate at which test compounds in solution permeate a cell monolayer designed to mimic the tight junction of human small intestinal monolayers was determined.
Caco-2 (colon, adenocarcinoma; human) cells were obtained from ATCC (American Type Culture Collection; Rockville, Md.). For the permeation study, cells were seeded at a density of 63,000 cells/cm^2 on pre-wetted transwells polycarbonate filters (Costar; Cambridge, Mass.). A cell monolayer was formed after 21 days in culture. Following cell culture in the transwell plate, the membrane containing the cell monolayer was detached from the transwell plate and inserted into the diffusion chamber (Costar; Cambridge, Mass.). The diffusion chamber was inserted into the heating block which was equipped with circulating external, thermostatically regulated 37° C. water for temperature control. […]
The permeation study was performed with test compound concentrations at 100 μM and with ^14C-mannitol to monitor the integrity of the monolayer. […] Samples were analyzed by HPLC or liquid scintillation counting for test compound and mannitol concentrations. The permeation coefficient (Kp) in cm/sec was calculated.

T1 sequence (Q13639 1-380 isoform Q13639-4): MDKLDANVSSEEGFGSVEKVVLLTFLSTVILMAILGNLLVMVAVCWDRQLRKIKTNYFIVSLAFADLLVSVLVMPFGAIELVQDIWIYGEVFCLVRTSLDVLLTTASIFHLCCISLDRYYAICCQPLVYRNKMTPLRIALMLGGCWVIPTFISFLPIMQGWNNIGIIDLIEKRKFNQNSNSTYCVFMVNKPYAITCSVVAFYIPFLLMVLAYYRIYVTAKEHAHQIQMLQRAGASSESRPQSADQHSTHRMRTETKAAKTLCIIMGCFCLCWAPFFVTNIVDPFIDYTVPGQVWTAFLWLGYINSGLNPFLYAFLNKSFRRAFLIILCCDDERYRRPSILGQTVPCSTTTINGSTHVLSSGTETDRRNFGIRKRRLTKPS
Chain of human 5-HT3A receptor (P46098 24-478): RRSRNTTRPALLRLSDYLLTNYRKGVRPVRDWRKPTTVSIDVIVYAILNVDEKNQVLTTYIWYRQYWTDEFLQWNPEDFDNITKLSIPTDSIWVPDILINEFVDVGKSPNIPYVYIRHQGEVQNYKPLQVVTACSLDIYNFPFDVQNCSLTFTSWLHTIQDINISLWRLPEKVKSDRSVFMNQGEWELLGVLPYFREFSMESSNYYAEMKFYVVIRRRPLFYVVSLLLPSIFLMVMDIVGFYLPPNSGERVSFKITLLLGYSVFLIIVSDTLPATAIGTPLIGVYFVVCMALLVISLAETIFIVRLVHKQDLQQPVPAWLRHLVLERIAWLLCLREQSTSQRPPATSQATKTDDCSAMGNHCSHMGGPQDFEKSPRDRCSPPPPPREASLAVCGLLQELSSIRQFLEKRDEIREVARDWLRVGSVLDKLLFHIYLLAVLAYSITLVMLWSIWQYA

Q: For `CC(=O)N1CCN(CCN2C3CCC2CC(NC(=O)c2nn(C(C)C)c4ccccc24)C3)CC1` [compound of formula I, 1-isopropyl-1H-indazole-3-carboxylic acid {(1S,3R,5R)-8-[2-(4-acetylpiperazin-1-yl)ethyl]-8-azabicyclo[3.2.1]oct-3-yl}amide], which “5-HT4/5-HT3 receptor subtype selectivity, ratio Ki(5-HT3A)/Ki(5-HT4(c))” value [1] is on record?
A: greater than 500

Q: What about the Ki [2] of the same compound?
A: < 100 nM

Q: And the EC50 [3]?
A: < 31.6 nM

Q: And the “permeation coefficient Kp” value [4]?
A: greater than 20×10^−6 cm/sec
